The text below walks through data of PubChem BioAssay (NCI).

Test systems include SK-OV-3 ovarian; HCC-2998 colon; MDA-MB-435; UACC-62 melanoma; TK-10 renal; U251 CNS; BT-549 breast; KM12 colon; HL-60(TB) leukemia; OVCAR-3 ovarian.
What all share (assay): growth of human tumour cells (NCI), 48 h

“And” between values parts separate entries of the source, which are not always exact repeats. Identical values can stand only once.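 These data come from cells grown in 96-well plates and exposed to compound for 48 hours at five concentrations. Here, GI50 denotes the concentration required for 50% inhibition of growth. TGI: total growth inhibition.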

Consider `CN1CCN(c2ccc(C(=O)Nc3cccc(C#Cc4cccc5[nH]nc(N)c45)c3)cc2C(F)(F)F)CC1`, for which the GI50 was 1.62 µM in the test with SK-OV-3 ovarian; 658 nM in the test with HCC-2998 colon; 610 nM in the test on MDA-MB-435; 0.665 µM in the test with UACC-62 melanoma; 1.1 µM with TK-10 renal; 0.707 µM in the test on U251 CNS. Also, the GI50 with BT-549 breast was 3.36 µM; with KM12 colon, 808 nM; with HL-60(TB) leukemia, 866 nM; in the test with OVCAR-3 ovarian, 1380 nM. Also, the TGI with SK-OV-3 ovarian was 5.34 µM; in the test on HCC-2998 colon it was 1.31 µM; in the test with MDA-MB-435, 1.19 µM; in the test on UACC-62 melanoma, 1.62 µM; in the test with TK-10 renal, 3.24 µM; with U251 CNS, 1.95 µM. Besides, the TGI with BT-549 breast is 7.68 µM; in the test with KM12 colon it was 1.95 µM; in the test with HL-60(TB) leukemia it was 3.08 µM; with OVCAR-3 ovarian it was 4.73 µM.

As to `CC(=O)/C(=C\c1c(-c2ccccc2)[nH]c2ccccc12)S(=O)(=O)c1ccccc1`, the GI50 was 2.81 µM with SK-OV-3 ovarian; 1380 nM with HCC-2998 colon; 295 nM in the test with MDA-MB-435; 0.975 µM with UACC-62 melanoma; 3.44 µM in the test on TK-10 renal; 1.2 µM with U251 CNS. The GI50 with BT-549 breast is 1.76 µM; in the test with KM12 colon, 1010 nM; in the test with HL-60(TB) leukemia, 1690 nM; in the test on OVCAR-3 ovarian, 1540 nM. Further, the TGI with SK-OV-3 ovarian is 19.4 µM; with HCC-2998 colon it was 2.78 µM; with MDA-MB-435, 4.14 µM; in the test on UACC-62 melanoma, 4.46 µM; in the test with TK-10 renal, more than 41.1 µM; in the test with U251 CNS, 3.62 µM. In addition, the TGI with BT-549 breast came out at 11 µM; in the test on KM12 colon it was 2.65 µM; in the test with HL-60(TB) leukemia, 5.28 µM; in the test on OVCAR-3 ovarian, 4.52 µM.

For the compound `CC(C)(C)OC(=O)NCCCCCCCCCCn1c2c(c3ccccc3c1=O)C(=O)c1ccccc1-2`, the GI50 is 40.3 µM in the test with SK-OV-3 ovarian; more than 100000 nM in the test with HCC-2998 colon; more than 100000 nM with MDA-MB-435; 43.9 µM in the test with UACC-62 melanoma; 20.3 µM in the test on TK-10 renal; 29 µM in the test with U251 CNS. Also, the GI50 in the test on BT-549 breast is 57.5 µM; with KM12 colon it was more than 100000 nM; with HL-60(TB) leukemia it was 32600 nM; in the test on OVCAR-3 ovarian it was more than 100000 nM. Moreover, the TGI was more than 100 µM in the test with SK-OV-3 ovarian; more than 100 µM in the test on HCC-2998 colon; more than 100 µM in the test on MDA-MB-435; more than 100 µM with UACC-62 melanoma; 52.1 µM in the test on TK-10 renal; more than 100 µM with U251 CNS. For the same compound, the TGI in the test with BT-549 breast, in the test with KM12 colon, in the test with HL-60(TB) leukemia and in the test with OVCAR-3 ovarian was more than 100 µM throughout.

Turning to `Nc1nc(-c2cc(-c3cccc4ccccc34)nc(N)n2)cc(-c2cccc3ccccc23)n1`, the TGI in the test on SK-OV-3 ovarian, in the test with HCC-2998 colon, with MDA-MB-435, in the test on UACC-62 melanoma, in the test on TK-10 renal and in the test on U251 CNS was more than 100 µM each time. The TGI in the test on BT-549 breast, with KM12 colon, with HL-60(TB) leukemia and in the test on OVCAR-3 ovarian was more than 100 µM each time.

As for `Clc1ccc(N2CCC(N3CCCC3)CC2)cc1-c1nc2ccccc2[nH]1`, the GI50 in the test on SK-OV-3 ovarian was 24.5 µM; in the test on HCC-2998 colon it was 18600 nM; in the test on MDA-MB-435, 17700 nM; in the test with UACC-62 melanoma, 16.2 µM; with TK-10 renal, 20.7 µM; in the test with U251 CNS, 16.7 µM. For the same compound, the GI50 in the test with BT-549 breast was 14.1 µM; with KM12 colon, 22600 nM; in the test on HL-60(TB) leukemia, 23500 nM; in the test with OVCAR-3 ovarian it was 17800 nM. Further, the TGI in the test with SK-OV-3 ovarian is more than 67.9 µM; in the test on HCC-2998 colon it was 37.4 µM; in the test with MDA-MB-435, 35.7 µM; in the test with UACC-62 melanoma, 32.1 µM; in the test with TK-10 renal it was 42.2 µM; in the test on U251 CNS, 35.1 µM. Besides, the TGI is 31.2 µM in the test with BT-549 breast, 55.2 µM with KM12 colon, 50.1 µM in the test with HL-60(TB) leukemia and 40.4 µM in the test with OVCAR-3 ovarian.

Turning to `C[C@@](O)(/C=C/[C@H]1CC=CC(=O)O1)[C@@H](C[C@@H](O)\C=C/C=C\C=C\CO)OP(=O)(O)O`, the TGI in the test on SK-OV-3 ovarian is 31.4 µM; in the test on HCC-2998 colon, 22.3 µM; in the test with MDA-MB-435, 11.7 µM; with UACC-62 melanoma it was 28 µM and 11 µM; with TK-10 renal it was 46.6 µM; in the test on U251 CNS, 49 µM and 55.6 µM. In addition, the TGI in the test with BT-549 breast is 36.6 µM; in the test on KM12 colon it was 32.2 µM and 37.8 µM; in the test on HL-60(TB) leukemia, 2.99 µM; with OVCAR-3 ovarian, 27.7 µM and 12.7 µM. Also, the GI50 was 6.51 µM with UACC-62 melanoma; 13.3 µM in the test on U251 CNS; 12100 nM and 2940 nM in the test on OVCAR-3 ovarian.

In the case of `C#C/C=C/CC1OC(C(Br)CC)CC(Br)C2CC1O2` (stereo not drawn), the TGI in the test on SK-OV-3 ovarian, in the test on HCC-2998 colon, with MDA-MB-435, in the test on UACC-62 melanoma, with TK-10 renal and in the test with U251 CNS was more than 100 µM each time. Also, the TGI in the test with BT-549 breast, with KM12 colon, in the test on HL-60(TB) leukemia and with OVCAR-3 ovarian was more than 100 µM each time.

As for `Cc1ncc(-c2ccnc(Nc3ccc(S(C)(=O)=O)cc3)n2)n1C(C)C`, the GI50 in the test on SK-OV-3 ovarian is 4.16 µM; in the test with HCC-2998 colon, 1350 nM; with MDA-MB-435, 1410 nM; in the test with UACC-62 melanoma it was 1.45 µM; in the test with TK-10 renal, 1.37 µM; in the test on U251 CNS, 1.11 µM. Also, the GI50 was 0.925 µM with BT-549 breast, 527 nM in the test on KM12 colon, 1060 nM in the test with HL-60(TB) leukemia and 853 nM with OVCAR-3 ovarian. The TGI in the test on SK-OV-3 ovarian is more than 10 µM; in the test on HCC-2998 colon it was 5.59 µM; with MDA-MB-435, more than 5.6 µM; in the test with UACC-62 melanoma, 3.64 µM; in the test on TK-10 renal, more than 10 µM; in the test on U251 CNS, more than 10 µM. Besides, the TGI in the test on BT-549 breast is 7.22 µM; in the test on KM12 colon, 2.33 µM; in the test on HL-60(TB) leukemia, 4.64 µM; with OVCAR-3 ovarian, more than 8.42 µM.
